Results reported in ChEMBL document CHEMBL3046714, “Synthesis and Precocious Metamorphosis-Inducing Activity of 3-(1-Alkenyl) pyridines” (J Pestic Sci, 2000).

Legend:
[1] = Toxicity in Bombyx mori Shunrei x Shougetsu fourth-instar larvae assessed as mortality at 160 ug applied topically; assay type: organism-based; conditions: in vivo, topical or ocular
Bombyx mori [2] = experiment: Precocious metamorphosis-inducing activity in Bombyx mori Shunrei x Shougetsu fourth-instar larvae assessed as change in body weight at >80 ug applied topically measured every 12 hr during fourth-instar period; assay type: functional
Bombyx mori [3] = experiment: Precocious metamorphosis-inducing activity in Bombyx mori Shunrei x Shougetsu fourth-instar larvae assessed as change in body weight compound applied topically measured every 12 hr during fourth-instar period; assay type: functional
Bombyx mori [4] = experiment: Precocious metamorphosis-inducing activity in Bombyx mori Shunrei x Shougetsu fourth-instar larvae assessed as change in body weight at >160 ug applied topically measured every 12 hr during fourth-instar period; assay type: functional

Compound | mortality [1] [%] | Activity (Bombyx mori [2]) [%] | ED50 (Bombyx mori [3]) [µg] | Activity (Bombyx mori [4]) [%]
C(=C/c1cccnc1)/c1ccccc1 | 100 | 7 | >80 | –
C(=C\c1cccnc1)/c1ccccc1 | – | – | >160 | 9
CCCCCC=C(c1ccccc1)c1cccnc1 | – | – | >160 | 35
CCCCC=C(c1ccccc1)c1cccnc1 | – | – | 102 | –
CC(C)CC=C(c1ccccc1)c1cccnc1 | – | – | 34 | –
CCCC=C(c1ccccc1)c1cccnc1 | – | – | 50 | –
CCC=C(c1ccccc1)c1cccnc1 | – | – | 29 | –
CC(=Cc1ccccc1)c1cccnc1 | – | – | 42 | –
C(=C(c1ccccc1)c1cccnc1)c1ccccc1 | – | – | 144 | –
CC=C(c1ccccc1)c1cccnc1 | – | – | 26 | –
CC=C(C)c1cccnc1 | – | – | >160 | 20
C=C(c1ccccc1)c1cccnc1 | – | – | 56 | –
CCOC(=O)/C=C/c1cccnc1 | – | – | >160 | 0
CC=Cc1cccnc1 | – | – | >160 | 0
CCOC(=O)/C=C(/C)c1cccnc1 | – | – | >160 | 0
CCOC(=O)C=C(c1ccccc1)c1cccnc1 | – | – | 89 | –
CCOC(=O)/C=C(\C)c1cccnc1 | – | – | >160 | 5
CC(C)C=C(c1ccccc1)c1cccnc1 | – | – | 27 | –
CCC(c1ccccc1)c1cccnc1 (racemic) | – | – | 42 | –
